Results from US20260234129A1, “NOVEL IMIDAZOLE DERIVATIVE AND USE THEREOF” (PELEMED CO., LTD., priority 2023, published 2026).

tested on: MV4-11 cells (FLT3-ITD-expressing AML cell line); experiment: Cell proliferation inhibition, Alamar Blue; type: cell-based, human; details: Homo sapiens, MV4-11, 72 hours of compound treatment, read-out: Cellular (GI50) MV4-11
Procedure: The cell proliferation inhibition experiment on acute myeloid leukemia (AML) cell lines was performed using FL3-ITD-expressing AML cell line MV4-11, BaF3-ITD-FLT3 F691L cell line, and BaF3-ITD-FLT3 D835Y cell line to test FLT3 inhibitory activity. All cell lines were human-derived cell lines, and the sources and culture conditions for each cell line are as follows.
Cell viability was assessed by a resazurin redox-based assay using the Alamar Blue Assay kit (Invitrogen, USA). Specifically, MV4-11, BaF3-ITD-FLT3-F691L, and BaF3-ITD-FLT3-D835Y cells were plated in 384-well plates at 8,000 cells in 45 μL of medium. As a negative control, dimethyl sulfoxide (DMSO) was added together with the compound. After three days (72 hours) of compound treatment, 5 μL of the Alamar Blue kit reagent was added to each well of the 384-well plates, followed by incubation at 37° C. for 2 hours in a humidified CO2 incubator. After incubation, fluorescence intensity (Flu) was measured at 544 nm and 590 nm using a SpectraMax iD3 Multi Mode Microplate Reader (Molecular Devices, ID3-STD).

SMILES	GI50
CN(C)CCNC(=O)c1ccc2[nH]nc(-c3nc4ccc(N5CCOCC5)cc4[nH]3)c2c1 [Example 62, N-(2-(dimethylamino)ethyl)-3-(6-morpholino-1H-benzo[d]imidazol-2-yl)-1H-indazole-5-carboxamide]	< 10 nM
NCCCCNC(=O)c1ccc2[nH]nc(-c3nc4ccc(F)cc4[nH]3)c2c1 [Example 39, N-(4-aminobutyl)-3-(6-fluoro-1H-benzo[d]imidazol-2-yl)-1H-indazole-5-carboxamide]	100 to 1000 nM
NCCCNC(=O)c1ccc2[nH]nc(-c3ncc(-c4ccc(C(F)(F)F)cc4)[nH]3)c2c1 [Example 86, N-(3-aminopropyl)-3-(5-(4-(trifluoromethyl)phenyl)-1H-imidazol-2-yl)-1H-indazole-5-carboxamide]	10 to 100 nM
CN1CCN(C2CCN(C(=O)c3ccc4[nH]nc(-c5nc6ccc(F)cc6[nH]5)c4c3)CC2)CC1 [Example 34, (3-(6-fluoro-1H-benzo[d]imidazol-2-yl)-1H-indazol-5-yl)(4-(4-methylpiperazin-1-yl)piperidin-1-yl)methanone]	> 1000 nM
NCCCNC(=O)c1ccc2[nH]nc(-c3ncc(-c4cccc(F)c4)[nH]3)c2c1 [Example 82, N-(3-aminopropyl)-3-(5-(3-fluorophenyl)-1H-imidazol-2-yl)-1H-indazole-5-carboxamide]	10 to 100 nM
CN(C)CCCNC(=O)c1ccc2[nH]nc(-c3nc4cc(F)c(F)cc4[nH]3)c2c1 [Example 9, 3-(5,6-difluoro-1H-benzo[d]imidazol-2-yl)-N-(3-(dimethylamino)propyl)-1H-indazole-5-carboxamide]	10 to 100 nM
NCCCNC(=O)c1ccc2[nH]nc(-c3ncc(-c4ccc(N5CCOCC5)cc4)[nH]3)c2c1 [Example 90, N-(3-aminopropyl)-3-(5-(4-morpholinophenyl)-1H-imidazol-2-yl)-1H-indazole-5-carboxamide]	100 to 1000 nM
COCCn1c(-c2n[nH]c3ccc(C(=O)NCCCN)cc23)nc2ccc(F)cc21 [Example 106, N-(3-aminopropyl)-3-(6-fluoro-1-(2-methoxyethyl)-1H-benzo[d]imidazol-2-yl)-1H-indazole-5-carboxamide]	> 1000 nM
NCCCNC(=O)c1ccc2[nH]nc(-c3nc(C(N)=O)c(-c4ccccc4)[nH]3)c2c1 [Example 113, N-(3-aminopropyl)-3-(4-carbamoyl-5-phenyl-1H-imidazol-2-yl)-1H-indazole-5-carboxamide]	100 to 1000 nM
NCCCNC(=O)c1ccc2[nH]nc(-c3ncc(-c4ccc(F)cc4)[nH]3)c2c1 [Example 81, N-(3-aminopropyl)-3-(5-(4-fluorophenyl)-1H-imidazol-2-yl)-1H-indazole-5-carboxamide]	10 to 100 nM
NCCCNC(=O)c1ccc2[nH]nc(-c3ncc(-c4ccccc4F)[nH]3)c2c1 [Example 83, N-(3-aminopropyl)-3-(5-(2-fluorophenyl)-1H-imidazol-2-yl)-1H-indazole-5-carboxamide]	10 to 100 nM
COc1c(Cl)cc(Cl)cc1-c1cnc(-c2n[nH]c3ccc(C(=O)NCCCN)cc23)[nH]1 [Example 87, N-(3-aminopropyl)-3-(5-(3,5-dichloro-2-methoxyphenyl)-1H-imidazol-2-yl)-1H-indazole-5-carboxamide]	10 to 100 nM
COCc1cnc(-c2n[nH]c3ccc(C(=O)NCCCN)cc23)[nH]1 [Example 114, N-(3-aminopropyl)-3-(5-(methoxymethyl)-1H-imidazol-2-yl)-1H-indazole-5-carboxamide]	> 1000 nM
NCCN1CCC(NC(=O)c2ccc3[nH]nc(-c4nc5ccccc5[nH]4)c3c2)CC1 [Example 112, N-(1-(2-aminoethyl)piperidin-4-yl)-3-(1H-benzo[d]imidazol-2-yl)-1H-indazole-5-carboxamide]	10 to 100 nM
C[C@@H]1CN(c2ccc3nc(-c4n[nH]c5ccc(C(=O)NCCCN)cc45)[nH]c3c2)C[C@H](C)N1 [Example 19, N-(3-aminopropyl)-3-(6-((3S,5R)-3,5-dimethylpiperazin-1-yl)-1H-benzo[d]imidazol-2-yl)-1H-indazole-5-carboxamide]	100 to 1000 nM
CN1CCN(CCn2c(-c3n[nH]c4ccc(C(=O)NCCCN)cc34)nc3ccc(F)cc32)CC1 [Example 108, N-(3-aminopropyl)-3-(6-fluoro-1-(2-(4-methylpiperazin-1-yl)ethyl)-1H-benzo[d]imidazol-2-yl)-1H-indazole-5-carboxamide]	> 1000 nM
NCCCNC(=O)c1ccc2[nH]nc(-c3nc4ccc(F)cc4n3CCO)c2c1 [Example 109, N-(3-aminopropyl)-3-(6-fluoro-1-(2-hydroxyethyl)-1H-benzo[d]imidazol-2-yl)-1H-indazole-5-carboxamide]	> 1000 nM

SMILES	GI50
O=C(N[C@@H]1CCCNC1)c1ccc2[nH]nc(-c3nc4ccc(F)cc4[nH]3)c2c1 [Example 41, (R)-3-(6-fluoro-1H-benzo[d]imidazol-2-yl)-N-(piperidin-3-yl)-1H-indazole-5-carboxamide]	> 1000 nM
CN1CCN(C(=O)c2ccc3[nH]nc(-c4nc5ccccc5[nH]4)c3c2)CC1 [Example 2, (3-(1H-benzo[d]imidazol-2-yl)-1H-indazol-5-yl)(4-methylpiperazin-1-yl)methanone]	100 to 1000 nM
CN(C)CCCNC(=O)c1ccc2[nH]nc(-c3nc4ccc(C#N)cc4[nH]3)c2c1 [Example 10, 3-(6-cyano-1H-benzo[d]imidazol-2-yl)-N-(3-(dimethylamino)propyl)-1H-indazole-5-carboxamide]	100 to 1000 nM
NCCCNC(=O)c1ccc2[nH]nc(-c3nc4ccc(Cl)cc4[nH]3)c2c1 [Example 27, N-(3-aminopropyl)-3-(6-chloro-1H-benzo[d]imidazol-2-yl)-1H-indazole-5-carboxamide]	10 to 100 nM
NCCCNC(=O)c1ccc2[nH]nc(-c3nc4cccc(F)c4[nH]3)c2c1 [Example 25, N-(3-aminopropyl)-3-(7-fluoro-1H-benzo[d]imidazol-2-yl)-1H-indazole-5-carboxamide]	10 to 100 nM
CN(C)CCn1c(-c2n[nH]c3ccc(C(=O)NCCCN)cc23)nc2ccc(F)cc21 [Example 107, N-(3-aminopropyl)-3-(1-(2-(dimethylamino)ethyl)-6-fluoro-1H-benzo[d]imidazol-2-yl)-1H-indazole-5-carboxamide]	> 1000 nM
NCCCNC(=O)c1ccc2[nH]nc(-c3nc4ccc(Br)cc4[nH]3)c2c1 [Example 28, N-(3-aminopropyl)-3-(6-bromo-1H-benzo[d]imidazol-2-yl)-1H-indazole-5-carboxamide]	10 to 100 nM
CC(=O)NCCCNC(=O)c1ccc2[nH]nc(-c3nc4ccc(N5CCCCC5)cc4[nH]3)c2c1 [Example 33, N-(3-acetamidopropyl)-3-(6-(piperidin-1-yl)-1H-benzo[d]imidazol-2-yl)-1H-indazole-5-carboxamide]	< 10 nM
CS(=O)(=O)NCCNC(=O)c1ccc2[nH]nc(-c3nc(-c4ccccc4)c[nH]3)c2c1 [Example 94, N-(2-(methylsulfonamido)ethyl)-3-(4-phenyl-1H-imidazol-2-yl)-1H-indazole-5-carboxamide]	> 1000 nM
O=C(c1ccc2[nH]nc(-c3nc(-c4ccccc4)c[nH]3)c2c1)N1CCN(c2ccc(F)cc2)CC1 [Example 97, (4-(4-fluorophenyl)piperazin-1-yl)(3-(4-phenyl-1H-imidazol-2-yl)-1H-indazol-5-yl)methanone]	> 1000 nM
NCCCNC(=O)c1ccc2[nH]nc(-c3ncc(-c4ccc(Cl)c(F)c4)[nH]3)c2c1 [Example 85, N-(3-aminopropyl)-3-(5-(4-chloro-3-fluorophenyl)-1H-imidazol-2-yl)-1H-indazole-5-carboxamide]	10 to 100 nM
NCCCNC(=O)c1ccc2[nH]nc(-c3ncc(-c4cccc([N+](=O)[O-])c4)[nH]3)c2c1 [Example 89, N-(3-aminopropyl)-3-(5-(3-nitrophenyl)-1H-imidazol-2-yl)-1H-indazole-5-carboxamide]	100 to 1000 nM
O=C(c1ccc2[nH]nc(-c3nc4ccccc4[nH]3)c2c1)N1CCN(c2ccc(F)cc2)CC1 [Example 3, (3-(1H-benzo[d]imidazol-2-yl)-1H-indazol-5-yl)(4-(4-fluorophenyl)piperazin-1-yl)methanone]	> 1000 nM
CN(C)CCOc1ccc2nc(-c3n[nH]c4ccc(C(=O)NCCCN)cc34)[nH]c2c1 [Example 24, N-(3-aminopropyl)-3-(6-(2-(dimethylamino)ethoxy)-1H-benzo[d]imidazol-2-yl)-1H-indazole-5-carboxamide]	100 to 1000 nM
NCCCNC(=O)c1ccc2[nH]nc(-c3ncc(-c4cccc(O)c4)[nH]3)c2c1 [Example 92, N-(3-aminopropyl)-3-(5-(3-hydroxyphenyl)-1H-imidazol-2-yl)-1H-indazole-5-carboxamide]	100 to 1000 nM
O=C(NC1CCNCC1)c1ccc2[nH]nc(-c3nc4ccc(F)cc4[nH]3)c2c1 [Example 40, 3-(6-fluoro-1H-benzo[d]imidazol-2-yl)-N-(piperidin-4-yl)-1H-indazole-5-carboxamide]	10 to 100 nM
Nc1ccc(NC(=O)c2ccc3[nH]nc(-c4nc5ccc(N6CCOCC6)cc5[nH]4)c3c2)cc1 [Example 72, N-(4-aminophenyl)-3-(6-morpholino-1H-benzo[d]imidazol-2-yl)-1H-indazole-5-carboxamide]	10 to 100 nM
